In the NIST ThermoML archive (doi:10.1021/acs.jced.7b00452):
Numbers after ± are expanded uncertainties.

Key:
[1] = mn = molality of the nth substance listed, in mol/kg; settings: 101.3 kPa, Liquid; for speed of sound: Single path-length method; for mass density: Vibrating tube method
[2] = 318.15 K; 101.3 kPa; Liquid; Single path-length method

speed of sound ([1]; 298.15 K, m1 = 0.025) | speed of sound ([1]; 298.15 K, m1 = 0.05) | mass density ([1]; 298.15 K, m1 = 0.025) | mass density ([1]; 298.15 K, m1 = 0.05) | speed of sound ([1]; 308.15 K, m1 = 0.025) | speed of sound ([1]; 308.15 K, m1 = 0.05) | mass density ([1]; 308.15 K, m1 = 0.025) | mass density ([1]; 308.15 K, m1 = 0.05) | speed of sound ([1]; 318.15 K, m1 = 0.025) | speed of sound ([1]; 318.15 K, m1 = 0.05) | mass density ([1]; 318.15 K, m1 = 0.025) | mass density ([1]; 318.15 K, m1 = 0.05) | speed of sound [2] | SMILES | speed of sound ([1]; 318.15 K, m2 = 0)
1498.8 ± 1 m/s | 1500 ± 1 m/s | 997.765 ± 0.1 kg/m3 | 998.484 ± 0.1 kg/m3 | 1521.6 ± 1 m/s | 1522.7 ± 1 m/s | 994.741 ± 0.1 kg/m3 | 995.466 ± 0.1 kg/m3 | 1538 ± 1 m/s | 1539.2 ± 1 m/s | 990.91 ± 0.11 kg/m3 | 991.637 ± 0.11 kg/m3 | – | C[C@H](N)C(=O)O [(S)-2-aminopropanoic acid] + O | –
1498.9 ± 1 m/s | 1501.7 ± 1 m/s | 997.706 ± 0.1 kg/m3 | 998.248 ± 0.1 kg/m3 | 1521.7 ± 1 m/s | 1524.2 ± 1 m/s | 994.661 ± 0.1 kg/m3 | 995 ± 0.1 kg/m3 | 1537.7 ± 1 m/s | 1540.2 ± 1 m/s | 990.798 ± 0.1 kg/m3 | 991.103 ± 0.1 kg/m3 | – | CC(C)[C@H](N)C(=O)O [L-valine] + O | –
– | – | – | – | – | – | – | – | – | – | – | – | 1536.7 ± 1 m/s | O [water] | –
– | – | – | – | – | – | – | – | – | – | – | – | – | O [water] + CCN(CC)CCNC(=O)c1ccc(N)cc1.Cl | 1536.7 ± 1 m/s
